Results published in the supplement of paper PMC10307832.

Legend:
Experiment in all cases: relative viability (nuclei count vs DMSO), 5 days (fraction); higher = more cells survive
[1] = test system: H3255
Summary of the method: (§1)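 Cells from lung cancer lines were seeded into 1536-well plates and, one day later, dosed by pin tool. Treatments were either a single drug or a fixed dose of an anchor drug with five library-drug doses (not always all listed) in √10 steps. After 5 days, nuclei were stained in a one-step fixation (final 0.05% Triton X-100, 1% formaldehyde, 1 ug/ml Hoechst) and counted on 4× images, and relative viability is the treated-to-vehicle nuclei ratio, as the median of duplicate plates.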

[2] = test system: NCI-H1944
Summary of the method: as §1

[3] = test system: NCI-H1915
Summary of the method: as §1

[4] = test system: NCI-H661
Summary of the method: as §1

[5] = test system: ABC-1
Summary of the method: as §1

[6] = test system: NCI-H441
Summary of the method: as §1

[7] = test system: NCI-H1650
Summary of the method: as §1

[8] = test system: NCI-H2087
Summary of the method: as §1

[9] = test system: NCI-H2023
Summary of the method: as §1

[10] = test system: BEN
Summary of the method: as §1

[11] = test system: CAL-12T
Summary of the method: as §1

[12] = test system: 201T
Summary of the method: as §1

[13] = test system: NCI-H460
Summary of the method: as §1

[14] = test system: NCI-H596
Summary of the method: as §1

[15] = test system: NCI-H1651
Summary of the method: as §1

[16] = test system: NCI-H520
Summary of the method: as §1

[17] = test system: LC-2-ad
Summary of the method: as §1

[18] = test system: NCI-H650
Summary of the method: as §1

[19] = test system: NCI-H727
Summary of the method: as §1

[20] = test system: LCLC-97TM1
Summary of the method: as §1

[21] = test system: PC-3 [JPC-3]
Summary of the method: as §1

[22] = test system: A-427
Summary of the method: as §1

COc1nc(C)cnc1NS(=O)(=O)c1cccnc1-c1ccc(-c2nnco2)cc1 [Zibotentan] + COc1cccc2cc(-c3nc([C@H]4CC[C@H](C(=O)O)CC4)n4ncnc(N)c34)[nH]c12 [OSI-027] (partner 0.5 µM)
relative viability ([1]; first compound 0.08 µM): 0.536
relative viability ([1]; first compound 0.253 µM): 0.542
relative viability ([1]; first compound 0.8 µM): 0.576
relative viability ([1]; first compound 2.53 µM): 0.526
relative viability ([2]; first compound 0.08 µM): 0.439
relative viability ([2]; first compound 0.253 µM): 0.393
relative viability ([2]; first compound 0.8 µM): 0.427
relative viability ([2]; first compound 2.53 µM): 0.465
relative viability ([3]; first compound 0.08 µM): 0.637
relative viability ([3]; first compound 0.253 µM): 0.627
relative viability ([3]; first compound 0.8 µM): 0.603
relative viability ([3]; first compound 2.53 µM): 0.649
relative viability ([4]; first compound 0.08 µM): 0.801
relative viability ([4]; first compound 0.253 µM): 0.671
relative viability ([4]; first compound 0.8 µM): 0.705
relative viability ([4]; first compound 2.53 µM): 0.756
relative viability ([5]; first compound 0.08 µM): 0.608
relative viability ([5]; first compound 0.253 µM): 0.542
relative viability ([5]; first compound 0.8 µM): 0.53
relative viability ([5]; first compound 2.53 µM): 0.527
relative viability ([6]; first compound 0.08 µM): 0.823
relative viability ([6]; first compound 0.253 µM): 0.404
relative viability ([6]; first compound 0.8 µM): 0.818
relative viability ([6]; first compound 2.53 µM): 0.752
relative viability ([7]; first compound 0.08 µM): 0.579
relative viability ([7]; first compound 0.8 µM): 0.644
relative viability ([7]; first compound 2.53 µM): 0.716
relative viability ([8]; first compound 0.08 µM): 0.506
relative viability ([8]; first compound 0.253 µM): 0.506
relative viability ([8]; first compound 0.8 µM): 0.613
relative viability ([8]; first compound 2.53 µM): 0.632
relative viability ([9]; first compound 0.08 µM): 0.475
relative viability ([9]; first compound 0.253 µM): 0.228
relative viability ([9]; first compound 0.8 µM): 0.371
relative viability ([9]; first compound 2.53 µM): 0.476
relative viability ([10]; first compound 0.08 µM): 0.301
relative viability ([10]; first compound 0.253 µM): 0.286
relative viability ([10]; first compound 0.8 µM): 0.27
relative viability ([10]; first compound 2.53 µM): 0.261
relative viability ([11]; first compound 0.08 µM): 0.559
relative viability ([11]; first compound 0.253 µM): 0.551
relative viability ([11]; first compound 0.8 µM): 0.614
relative viability ([11]; first compound 2.53 µM): 0.629
relative viability ([12]; first compound 0.08 µM): 0.819
relative viability ([12]; first compound 0.253 µM): 0.699
relative viability ([12]; first compound 0.8 µM): 0.679
relative viability ([12]; first compound 2.53 µM): 0.755
relative viability ([13]; first compound 0.08 µM): 0.665
relative viability ([13]; first compound 0.253 µM): 0.408
relative viability ([13]; first compound 0.8 µM): 0.593
relative viability ([13]; first compound 2.53 µM): 0.66
relative viability ([14]; first compound 0.08 µM): 0.776
relative viability ([14]; first compound 0.253 µM): 0.643
relative viability ([14]; first compound 0.8 µM): 0.52
relative viability ([14]; first compound 2.53 µM): 0.717
relative viability ([15]; first compound 0.08 µM): 0.694
relative viability ([15]; first compound 0.253 µM): 0.641
relative viability ([15]; first compound 0.8 µM): 0.701
relative viability ([15]; first compound 2.53 µM): 0.72
relative viability ([16]; first compound 0.08 µM): 0.295
relative viability ([16]; first compound 0.253 µM): 0.24
relative viability ([16]; first compound 0.8 µM): 0.264
relative viability ([16]; first compound 2.53 µM): 0.31
relative viability ([17]; first compound 0.08 µM): 0.817
relative viability ([17]; first compound 0.8 µM): 1.13
relative viability ([17]; first compound 2.53 µM): 0.79
relative viability ([18]; first compound 0.08 µM): 0.54
relative viability ([18]; first compound 0.253 µM): 0.509
relative viability ([18]; first compound 0.8 µM): 0.566
relative viability ([18]; first compound 2.53 µM): 0.649
relative viability ([19]; first compound 0.08 µM): 0.591
relative viability ([19]; first compound 0.253 µM): 0.499
relative viability ([19]; first compound 0.8 µM): 0.601
relative viability ([19]; first compound 2.53 µM): 0.696
relative viability ([20]; first compound 0.08 µM): 0.602
relative viability ([20]; first compound 0.253 µM): 0.72
relative viability ([20]; first compound 0.8 µM): 0.606
relative viability ([20]; first compound 2.53 µM): 0.49
relative viability ([21]; first compound 0.08 µM): 0.789
relative viability ([21]; first compound 0.253 µM): 0.791
relative viability ([21]; first compound 0.8 µM): 0.737
relative viability ([21]; first compound 2.53 µM): 0.89
relative viability ([22]; first compound 0.08 µM): 0.54
relative viability ([22]; first compound 0.253 µM): 0.425
relative viability ([22]; first compound 0.8 µM): 0.501
relative viability ([22]; first compound 2.53 µM): 0.579
